# Measurements published in patent publication US20140023611A1 (priority 2010, published 2014).
# Molecular target: T1, rat NaP2b (SLC34A2) (Rattus norvegicus, UniProt Q9JJ09)
# T1 construct: host or cells: HEK293
# T1 sequence (Q9JJ09 1-695): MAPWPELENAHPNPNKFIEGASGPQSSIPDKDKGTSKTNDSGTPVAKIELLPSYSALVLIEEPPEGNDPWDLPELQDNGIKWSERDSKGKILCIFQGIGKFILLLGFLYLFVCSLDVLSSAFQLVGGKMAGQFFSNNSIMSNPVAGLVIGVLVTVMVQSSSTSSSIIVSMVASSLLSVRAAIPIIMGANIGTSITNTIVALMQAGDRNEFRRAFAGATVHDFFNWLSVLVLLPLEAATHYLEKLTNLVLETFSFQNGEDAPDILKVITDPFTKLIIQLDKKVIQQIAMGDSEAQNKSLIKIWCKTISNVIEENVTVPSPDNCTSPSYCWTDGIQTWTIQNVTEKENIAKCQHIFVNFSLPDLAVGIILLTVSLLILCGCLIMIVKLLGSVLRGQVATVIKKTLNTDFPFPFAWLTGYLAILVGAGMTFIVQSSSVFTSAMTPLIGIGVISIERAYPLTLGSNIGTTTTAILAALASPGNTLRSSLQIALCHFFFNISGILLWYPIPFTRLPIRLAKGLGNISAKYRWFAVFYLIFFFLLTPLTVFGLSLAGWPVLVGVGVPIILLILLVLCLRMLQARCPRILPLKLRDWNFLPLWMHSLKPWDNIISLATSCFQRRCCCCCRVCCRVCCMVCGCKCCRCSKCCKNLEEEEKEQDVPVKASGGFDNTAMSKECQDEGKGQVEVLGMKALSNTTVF
# Test: Inhibition of NaP2b-mediated Pi (33P) uptake in transfected HEK293 cells, rat NaP2b
# Assay type: cell-based
# Conditions: 33P Pi uptake, 0.1 mM phosphate, value given as pIC50 range
# Procedure: HEK293 cells were obtained from the American Type Culture collection and propagated per their instructions. […] The sequence of the human protein was mutated to insert a threonine after residue 37, and to introduce a N39D mutation.
# Cells were seeded into 96-well plates at 25,000 cells/well and cultured overnight. Lipofectamine 2000 (Invitrogen) was used to introduce the NaP2b cDNA, and the cells were allowed to approach confluence during a second overnight incubation. […] Each compound was tested at twelve concentrations ranging from 0.1 nM to 30 uM. Assays were run in duplicate.
# Cells were lysed by addition of 20 μL 0.1% Tween 80 followed by 100 μL scintillation fluid, and counted using a TopCount (Perkin Elmer).
# pIC50 (the negative log of the IC50) values of the test compounds were calculated using GraphPad Prism.
row,IC50 [µM],Structure (SMILES)
1,1 to 7.94,"CN(CCN1CCC[C@H]1C(=O)N(C)CCOCCOCCOCCC(=O)OC(C)(C)C)C(=O)c1cccc(C(=O)Nc2ccc(N3CCCCC3)cc2-c2cc(C(=O)N[C@H]3CCCc4ccccc43)ccn2)c1 [Example 190, tert-Butyl 2-methyl-1-((S)-1-(2-(N-methyl-3-((4-(piperidin-1-yl)-2-(4-(((S)-1,2,3,4-tetrahydronaphthalen-1-yl)carbamoyl)pyridin-2-yl)phenyl)carbamoyl)benzamido)ethyl)pyrrolidin-2-yl)-1-oxo-5,8,11-trioxa-2-azatetradecan-14-oate]"
2,1 to 7.94,"CC(NC(=O)c1ccnc(-c2cc(N3CCCCC3)ccc2NC(=O)c2cccc(CSCCC(=O)O)c2)c1)c1cccc(C(F)(F)F)c1 (stereo not drawn) [Example 77, 3-(3-(4-(piperidin-1-yl)-2-(4-(1-(3-(trifluoromethyl)phenyl)ethylcarbamoyl)pyridin-2-yl)phenylcarbamoyl)benzylthio)propanoic acid]"
3,1 to 7.94,O=C(NCc1cccc(C(F)(F)F)c1)c1ccnc(-c2cc(N3CCCCC3)ccc2NC(=O)c2cccc(C(=O)N3CCC(CO)CC3)c2)c1 [Example 4.30]
4,10 to 31.6,C[C@@H]1CN(c2ccc(NC(=O)c3cccc(C(=O)N(C)CCN4CCOCC4)c3)c(-c3cc(C(=O)NCc4cccc(C(F)(F)F)c4)ccn3)c2)C[C@H](C)O1 [Example 95]
5,1 to 7.94,CN(C)c1ccc(NC(=O)c2cccc(CSCCC(=O)O)c2)c(-c2cc(C(=O)NCc3cccc(C(F)(F)F)c3)ccn2)c1 [Example 120]
6,< 1,"CCN(CC)c1ccc(NC(=O)c2cccc(C(=O)N(C)CCN(C)CCOCCOCCOCCNC(=O)c3cscn3)c2)c(-c2cc(C(=O)N[C@H]3CCCc4ccccc43)ccn2)c1 [Example 344, (S)—N-(4-(Diethylamino)-2-(4-(1,2,3,4-tetrahydronaphthalen-1-ylcarbamoyl)pyridin-2-yl)phenyl)-N^3-methyl-N^3-(14-methyl-1-oxo-1-(thiazol-4-yl)-5,8,11-trioxa-2,14-diazahexadecan-16-yl)isophthalamide]"
7,10 to 31.6,"COCCN(CCOCCOCCOCCC(=O)O)CCN(C)C(=O)c1cccc(C(=O)Nc2ccc(N3CCCCC3)cc2-c2cc(C(=O)N[C@H]3CCCc4ccccc43)ccn2)c1 [Example 221, 5-{2-[N-methyl-1-(3-{[4-(piperidin-1-yl)-2-(4-{[(1S)-1,2,3,4-tetrahydronaphthalen-1-yl]carbamoyl}pyridin-2-yl)phenyl]carbamoyl}phenyl)formamido]ethyl}-2,8,11,14-tetraoxa-5-azaheptadecan-17-oic acid]"
8,1 to 7.94,O=C(O)CCSCc1cccc(C(=O)Nc2ccc(N3CCCCC3)cc2-c2cc(C(=O)NCc3cccc(C(F)(F)F)c3)cc(Cl)n2)c1 [Example 86]
9,1 to 7.94,O=C(O)CCSCc1cccc(C(=O)Nc2ccc(N3CCCCC3)cc2-c2cc(C(=O)NCc3ccc(OCc4ccccc4)cc3)ccn2)c1 [Example 1.39]
10,10 to 31.6,O=C(O)CCSCc1cccc(C(=O)Nc2ccc(N3CCCCC3)cc2-c2cc(C(=O)Nc3nc4ccccc4[nH]3)ccn2)c1 [Example 1.19]
11,10 to 31.6,O=C(O)CCSCc1cccc(C(=O)Nc2ccc(N3CCCCC3)cc2-c2cc(Oc3cccc(C(F)(F)F)c3)ccn2)c1 [Example 94]
12,1 to 7.94,Cc1cccc(CNC(=O)c2ccnc(-c3cc(N4CCCCC4)ccc3NC(=O)c3cccc(CSCCC(=O)O)c3)c2)c1 [Example 1.46]
13,1 to 7.94,O=C(O)CCCC1CCN(C(=O)c2cccc(C(=O)Nc3ccc(N4CCCCC4)cc3-c3cc(C(=O)NCc4cccc(C(F)(F)F)c4)ccn3)c2)CC1 [Example 112]
14,10 to 31.6,CN1CCC(N(C)C(=O)c2cccc(SCc3cccc(C(=O)Nc4ccc(N5CCCCC5)cc4-c4cc(C(=O)NCc5cccc(C(F)(F)F)c5)ccn4)c3)c2)CC1 [Example 10.2]
15,10 to 31.6,COC[C@H]1CCCN1c1ccc(NC(=O)c2cccc(C(=O)N(C)CCN3CCOCC3)c2)c(-c2cc(C(=O)NCc3cccc(C(F)(F)F)c3)ccn2)c1 [Example 103]
